Experimental data from patent US6428997B1, “Aminopeptidase derived from Bacillus licheniformis and process for preparation of natural type proteins” (LG Chemical Ltd., priority 1997, dated 2002).

What was measured:
aminopeptidase = assay: Effect of chemical materials affecting enzyme activity of aminopeptidase; assay type: biochemical, Bacillus licheniformis
Protocol: (§1) In order to examine chemical materials affecting enzyme activity of aminopeptidase, enzyme activities of aminopeptidase treated for 2 hours with dithiotreitol, iodoacetic acid, ortho-phenanthroline and EDTA as 1, 5 and 20 mMJ respectively were measured.

[1] = target: T1, aminopeptidase of Bacillus licheniformis ATCC 12759 (N-terminal sequence SEQ ID NO: 3) (Bacillus licheniformis, UniProt Q65DH7); assay: Effect of chemical materials on aminopeptidase activity (2 h treatment, leucine-p-nitroanilide substrate); assay type: biochemical; settings: treated 2 hours, 0 mM = 100, read-out: relative activity
T1 sequence (Q65DH7 43-449 limits assumed): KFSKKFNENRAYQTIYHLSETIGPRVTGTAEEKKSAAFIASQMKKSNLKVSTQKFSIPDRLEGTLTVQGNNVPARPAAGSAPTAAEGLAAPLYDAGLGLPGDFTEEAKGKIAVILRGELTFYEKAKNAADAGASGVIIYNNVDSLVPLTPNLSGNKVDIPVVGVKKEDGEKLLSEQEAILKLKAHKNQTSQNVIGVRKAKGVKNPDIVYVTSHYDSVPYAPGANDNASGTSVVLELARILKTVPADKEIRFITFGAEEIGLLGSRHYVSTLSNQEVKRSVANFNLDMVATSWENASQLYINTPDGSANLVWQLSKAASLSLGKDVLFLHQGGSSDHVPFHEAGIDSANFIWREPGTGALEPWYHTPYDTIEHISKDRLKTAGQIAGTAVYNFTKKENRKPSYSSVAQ
Protocol: Aminopeptidase activities of this invention were measured by the method of Pfleiderer (Pfleiderer, Meth. Enzymol., 19, 514-521, 1970). Precisely, 1 U of enzyme activity defines the enzyme quantity changing 1 absorbance at 405 nm which is measured by the process adding aminopeptidase in 1 ml solution of […] Tris-Cl (pH 8.0) and 2 mM leucine-p-nitroanilide (Sigma, USA), incubating at 37° C. for 1 min, then adding 100 μl of 70% acetic acid to stop the reaction. At that time leucine-p-nitroanilide was dissolved in dimethylsulfoxide (DMSO) to make 100 mM solution.
as §1

[2] = Moore, Endocrinology 1988; cited from earlier work
[3] = aminopeptidase treated for 2 hours with 1 mM chemical
[4] = aminopeptidase treated for 2 hours with 5 mM chemical
[5] = aminopeptidase treated for 2 hours with 20 mM chemical

Row | Molecule | effect on aminopeptidase activity (in words) (aminopeptidase) | relative activity (%) (aminopeptidase; [3]) | relative activity (%) (aminopeptidase; [4]) | relative activity (%) (aminopeptidase; [5]) | activity at 1000 µM ([1]; pH 8, 1 mM chemical) | activity at 5000 µM ([1]; pH 8, 5 mM chemical) | activity at 20000 µM ([1]; pH 8, 20 mM chemical) | biological activity compared with natural type HGH [2]
1 | O[C@H](CS)[C@H](O)CS (racemic) [dithiotreitol, dithiothreitol] | inhibited | 0.8% | 0% | 0% | – | – | – | –
2 | O=C(O)CN(CCN(CC(=O)O)CC(=O)O)CC(=O)O [EDTA, ethylenediaminetetraacetic acid] | inhibited partially | 93.8% | 83.4% | 66.3% | – | – | – | –
3 | O=C(O)CI [iodoacetic acid] | inhibited | 98.1% | 104.2% | 0% | – | – | – | –
4 | c1cnc2c(c1)ccc1cccnc12 [ortho-penanthroline, ortho-phenanthroline] | inhibited | 91.9% | 86.8% | 4.7% | 91.9% | 86.8% | 4.7% | –
5 | methionyl HGH: recombinant human growth hormone of 192 amino acids with Met-Phe-Pro-Thr sequence at the N-terminus | – | – | – | – | – | – | – | the same activity with that of natural type HGH
